Laboratory results: patent US8895544B2, “Indazoles” (Pfizer Limited, priority 2011, dated 2014)
pIC50: −log10 of the molar value.

Key:
JAK3 enzyme = JAK3 enzyme (Homo sapiens (Human), UniProt P52333); assay: JAK3 isolated enzyme high ATP Caliper endpoint assay; assay type: biochemical; details: 400 μM ATP, read-out: JAK-3 IC50
Method: JAK3 Isolated Enzyme High ATP Caliper Endpoint Assay
4 mM stock solutions of test compounds are prepared and serially diluted in 100% DMSO. […] Greiner 384 well plates are prepared containing 400 nl of serially diluted compound, standard and HPE/ZPE. Final top assay concentration is 80 μM as the assay dilution factor is fifty.
JAK3 enzyme stock is diluted to 2 nM in assay buffer (10 mM HEPES free acid pH 7.5, 10 mM HEPES free base pH 7.5, 10 mM MgCL2, 0.0005% Tween-20, 0.01% BSA) containing 2 mM DTT (all supplied by Sigma). ATP is made up at 10 mM stock in sterile water and diluted to 800 μM in assay buffer. Peptide (American peptide company) is made up at 30 mM in 100% DMSO and diluted to 3 μM in assay buffer.
Assays are performed in Greiner polypropylene 384 well plates. Following compound preparation within the plate 10 μl of enzyme in assay buffer containing DTT is added using a Multidrop Micro. Final assay concentration of enzyme is 1 nM. Compound and enzyme are pre-incubated for 60 minutes at room temperature using low evaporation lids before addition of 10 μl ATP/peptide mixture in assay buffer using a Multidrop Micro. […] Plates are foil sealed and incubated for a further 60 minutes at room temperature. Stop solution is added to the plates (20 μl/well) using a Multidrop Micro and plates are loaded onto the Caliper EZReader II. Data is generated by the shift in mobility of non-phosphorylated peptide substrates and phosphorylated products by electrophoresis within a chip and detected via LED induced fluorescence. Data is analysed using LabChip EZReader software which calculates the relative heights of the substrate and product peaks and reports product/product plus substrate peak ratio. Test compound data are subsequently expressed as percentage inhibition defined by HPE and ZPE values for each plate. Percentage inhibition in the presence of test compound is plotted against compound concentration on a log scale to determine an IC50 from the resultant sigmoid curve.

JAK1/3 = JAK1/3 whole cell reporter gene assay (IL-4 stimulated STAT6-beta-lactamase reporter); assay type: cell-based; details: Cellsensor STAT6-bla-RA-1 cell line, CD40 ligand and IL-4 stimulated
Method: JAK1/3 Whole Cell Reporter Gene Assay
4 mM stock solutions of test compounds are prepared and serially diluted in 100% DMSO. A standard curve using PF-00956980 at a top concentration of 10 mM is also prepared. High percentage effect (HPE) is defined by 10 mM PF-00956980 and 0% effect (ZPE) is defined by 100% DMSO. Plates containing 1 μl of serially diluted compound, standard and HPE/ZPE are diluted by addition of 39 μl assay media (Optimem with 100 uM NEAA, 10 uM sodium pyruvate and 100 U penicillin/100 ug streptomycin (Invitrogen)) using a Multidrop Combi. This dilutes test compounds to a top concentration of 100 μM. Final top assay concentration is 10 μM as the assay dilution factor is ten. Final DMSO concentration is 0.25%.
CD40 (Invitrogen) is prepared at 0.1 mg/ml in PBS minus Ca^2+, minus Mg^2+. The concentration of CD40 required for activation is predetermined by CD40 titration with the cell line. […]
Assays are performed in Greiner 384 well black polypropylene clear bottomed plates. The Invitrogen Cellsensor STATE-bla-RA-1 cell line is thawed, counted and resuspended at 1.88×10^6 cells/ml. […] Beta lactamase fluorescence signal is read at 460 nm (blue) and 530 nm (green) and a ratio calculated using an Envision. Test compound data are expressed as percentage inhibition defined by HPE and ZPE values for each plate. […]

JAK2 = JAK2 (Homo sapiens (Human), UniProt O60674); assay: JAK2 PathHunter assay (prolactin response, U2OS cell line); assay type: cell-based; details: PathHunter U2OS cell line expressing JAK2, prolactin challenge; read-out: JAK-2 IC50
Method: JAK1 and JAK2 PathHunter Assay
4 mM stock solutions of test compounds are prepared and serially diluted in 100% DMSO. A standard curve using PF-00956980 at a top concentration of 10 mM is also prepared. High percentage effect (HPE) is defined by 10 mM PF-00956980 and 0% effect (ZPE) is defined by 100% DMSO. Plates containing 1 μl of serially diluted compound, standard and HPE/ZPE are diluted by addition of 65 μl compound diluent (PBS minus Ca^2+, minus Mg^2+ with 0.05% pluronic F127) using a Multidrop Combi. This dilutes test compounds to a top concentration of 60 μM. Final top assay concentration is 10 μM as the assay dilution factor is six. Final DMSO concentration is 0.25%.
Prolactin (Peprotech) is used for the agonist challenge. Prolactin is prepared at 40 μM in compound diluent to generate a stock solution and further diluted to 6 μM in compound diluent. A standard curve is prepared in compound diluent. Prolactin is also diluted to a concentration of 15 nM (2.5 nM fac). Antagonism of the JAK1 or JAK2 prolactin response is measured in the presence of prolactin at an approximate […], concentration for JAK1 and approximately EC100 for JAK2. […]
Assays are performed in Greiner white 384 well plates. […] Luminescence signal is read using an Envision. Test compound data are expressed as percentage inhibition defined by HPE and ZPE values for each plate. […]

[1] = test system: IFNγ production in human isolated PBMC; assay: hrIL2/haCD3 stimulated IFNγ production in human isolated PBMC; assay type: cell-based; details: IL-2/aCD3 stimulated IFNγ, 18 h
Method: Functional Assessment of JAK Inhibitory Potency Using hrIL-2 and haCD3 stimuated IFNγ Production in Human Isolated PBMC.
(§1) Isolation of human Peripheral Blood Mononuclear Cells (PBMC)
Peripheral venous blood from healthy volunteers of either sex was collected into 50 ml centrifuge tubes (Corning) containing 1 ml of 5 mg/ml heparin (Sigma H3400) in distilled water. The heparininsed blood was diluted using an equal volume of sterile Dulbeccos phosphate buffered saline (PBS: Invitrogen 14190) before decanting into 50 ml Leucosep tubes (Sigma A0561). […]
180 μl of PBMC cell suspension was added to each well of a sterile 96 well, flat bottomed plate (Corning-Costar 3598). […] 100 μl supernatent was collected, diluted 1:4 and IFNγ content determined using a commercially available IFNγ ELISA kit (Invitrogen CHC1233) as per the manufacturer's instructions. Absorbances were measured using a Spectramax 190/250 plate reader (Molecular Devices). The IFNγ concentration of test wells was expressed as % of the IFNγ concentration produced in wells exposed to IL-2/aCD3 in the absence of test compound, and IC50 values determined using a 4 parameter curve fit.

[2] = test system: pYSTAT5 in PBMC lymphocytes; assay: hrIL2/haCD3 stimulated pYSTAT5 in PBMC lymphocytes; assay type: cell-based; details: rhIL2 stimulated pYSTAT5, human PBMC lymphocytes
Method: as §1
Peripheral venous blood from healthy volunteers of either sex was collected into 50 ml centrifuge tubes (Corning) containing 1 ml of 5 mg/ml heparin (Sigma H3400) in distilled water. The heparininsed blood was diluted using an equal volume of sterile Dulbeccos phosphate buffered saline (PBS: Invitrogen 14190) before decanting into 50 ml Leucosep tubes (Sigma A0561). The Leucosep tubes were centrifuged at 400 g for 30 min at room temperature and the buffycoat at the Ficoll:Plamsa interface collected into clean centrifuge tubes and the volum made up to 50 ml using PBS and centrifuging at 200 g for 10 min at room temperature. The supernatent was discarded and the pellet resuspended in assay media (Dulbeccos Modified Essential Medium (DMEM: Invitrogen 11971025) containing 5% Foetal Bovine Serum, 100 U/mIpenicilin/100 μg/ml streptomycin (Sigma P4458) at 2×10^6 lymphocytes per ml for IFNγ experiments and at 1×10^6 lymphocytes per ml for the pYSTAT5 experiments.
hrIL2/haCD3 Stimulated pYSTAT5 in PBMC Lymphocytes
90 μl of PBMC cell suspension was added to each well of a 96 well plate (Corning-Costar 3598) along with 10 μl of test compound dilution giving a final assay concentration range of 0.03 nM to 1 μM in half log increments. […] Plates were read the next day on a FACS Canto (Becton Dickinson). […]

[3] = test system: pYSTAT5 in PBMC lymphocytes; assay: Duration of action (DoA) after washout, pYSTAT5 in PBMC lymphocytes; assay type: cell-based, human; details: incubated at approximate IC80 for 1 h, then washed
Method: 90 μl of PBMC cell suspension was added to each well of a 96 well plate (Corning-Costar 3598) along with 10 μl of test compound dilution giving a final assay concentration range of 0.03 nM to 1 μM in half log increments. The plates were incuated at 37° C., in […] for 1 h before 10 μl rhIL2 (3 μg/ml final assay concentration) was added to appropriate wells and the plates incubated at the stated conditions for a further 15 min. 25 μl of 20% formaldehyde (Tousimis) was added to all wells and the plates left at room temperature for 10 min prior to centrifugation at 400 g for 4 min at room temperature. 200 μl PBS was added to each well and centrifugation repeated as just described. The supernatent was removed and 50 μl of a 1:50 dilution of Mouse anti-human CD3 (BD Biosciences 555329) in 0.1% BSA (Sigma A7906)/PBS added to each well (excluding control wells) and the plates incubated at room temperature in the dark for 30 min. […] Plates were read the next day on a FACS Canto (Becton Dickinson). […]
For determination of compound duration of action (DoA) cells were incubated with compound at an approximate IC80 concentration for 1 h before being washed by cenrifugation and resuspension in assay media without compound. […] DoA was calculated as the time taken for the inhibition to reverse by 50% (T50%)

Sequence of JAK3 enzyme (P52333 whole entry): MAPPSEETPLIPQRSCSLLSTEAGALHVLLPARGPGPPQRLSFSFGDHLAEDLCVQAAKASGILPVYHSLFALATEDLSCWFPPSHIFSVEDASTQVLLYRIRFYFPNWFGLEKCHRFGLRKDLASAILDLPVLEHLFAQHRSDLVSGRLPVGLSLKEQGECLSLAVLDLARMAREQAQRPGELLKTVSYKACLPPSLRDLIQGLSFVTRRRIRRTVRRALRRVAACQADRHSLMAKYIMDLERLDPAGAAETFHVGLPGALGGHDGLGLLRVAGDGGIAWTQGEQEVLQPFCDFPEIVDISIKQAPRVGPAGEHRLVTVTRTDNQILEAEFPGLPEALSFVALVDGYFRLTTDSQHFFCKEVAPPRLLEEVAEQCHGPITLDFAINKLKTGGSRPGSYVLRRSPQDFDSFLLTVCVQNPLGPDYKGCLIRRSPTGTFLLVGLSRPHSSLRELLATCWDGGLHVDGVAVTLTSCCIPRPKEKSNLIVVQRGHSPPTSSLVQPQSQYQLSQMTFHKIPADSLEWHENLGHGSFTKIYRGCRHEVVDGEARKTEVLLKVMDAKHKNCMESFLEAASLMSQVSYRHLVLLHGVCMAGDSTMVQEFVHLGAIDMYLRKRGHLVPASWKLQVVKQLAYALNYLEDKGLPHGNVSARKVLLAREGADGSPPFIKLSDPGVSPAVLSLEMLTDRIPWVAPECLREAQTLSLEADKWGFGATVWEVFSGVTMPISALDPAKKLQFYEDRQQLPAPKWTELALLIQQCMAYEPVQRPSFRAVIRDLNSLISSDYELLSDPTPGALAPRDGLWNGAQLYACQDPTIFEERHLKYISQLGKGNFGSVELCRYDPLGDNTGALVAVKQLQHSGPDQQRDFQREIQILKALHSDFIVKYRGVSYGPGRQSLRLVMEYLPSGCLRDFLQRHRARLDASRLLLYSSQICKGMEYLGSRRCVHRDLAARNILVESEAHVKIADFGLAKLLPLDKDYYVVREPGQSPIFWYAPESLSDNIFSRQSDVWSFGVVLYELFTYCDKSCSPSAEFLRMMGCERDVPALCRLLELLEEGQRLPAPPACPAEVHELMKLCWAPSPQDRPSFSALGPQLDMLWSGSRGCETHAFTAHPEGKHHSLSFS
Sequence of JAK2 (O60674 whole entry): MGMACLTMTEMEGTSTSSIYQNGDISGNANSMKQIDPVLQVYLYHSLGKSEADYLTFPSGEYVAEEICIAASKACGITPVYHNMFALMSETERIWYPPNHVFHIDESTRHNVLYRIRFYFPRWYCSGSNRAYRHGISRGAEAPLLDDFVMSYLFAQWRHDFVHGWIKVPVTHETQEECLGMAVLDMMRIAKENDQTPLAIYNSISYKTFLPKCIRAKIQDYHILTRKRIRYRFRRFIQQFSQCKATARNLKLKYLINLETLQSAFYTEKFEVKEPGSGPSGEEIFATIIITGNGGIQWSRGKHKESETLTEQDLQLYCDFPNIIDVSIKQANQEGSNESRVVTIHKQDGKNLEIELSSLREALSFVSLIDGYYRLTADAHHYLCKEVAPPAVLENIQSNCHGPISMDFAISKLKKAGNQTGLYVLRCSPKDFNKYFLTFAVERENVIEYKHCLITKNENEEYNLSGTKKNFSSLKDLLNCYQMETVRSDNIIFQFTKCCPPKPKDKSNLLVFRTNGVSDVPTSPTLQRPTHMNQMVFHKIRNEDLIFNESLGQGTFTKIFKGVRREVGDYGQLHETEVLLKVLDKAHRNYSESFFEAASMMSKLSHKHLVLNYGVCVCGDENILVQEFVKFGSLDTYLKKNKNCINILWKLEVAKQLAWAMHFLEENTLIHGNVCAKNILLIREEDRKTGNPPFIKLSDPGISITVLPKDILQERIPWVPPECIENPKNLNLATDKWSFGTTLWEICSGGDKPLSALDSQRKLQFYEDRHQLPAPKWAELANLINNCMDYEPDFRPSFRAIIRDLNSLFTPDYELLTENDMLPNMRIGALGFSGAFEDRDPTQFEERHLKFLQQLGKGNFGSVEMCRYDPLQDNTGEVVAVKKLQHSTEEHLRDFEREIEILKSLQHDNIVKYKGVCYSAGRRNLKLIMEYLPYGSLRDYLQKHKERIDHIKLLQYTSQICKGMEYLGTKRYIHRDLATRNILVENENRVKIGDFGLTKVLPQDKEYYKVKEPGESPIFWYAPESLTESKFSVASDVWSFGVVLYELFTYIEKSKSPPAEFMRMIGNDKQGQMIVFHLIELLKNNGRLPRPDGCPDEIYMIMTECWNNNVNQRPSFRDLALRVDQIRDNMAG

## CCc1cc(O)c(F)cc1-c1ccc2c(-c3nc4c([nH]3)CCN(C(=O)c3cnc(N5CCCCC5)cn3)C4)n[nH]c2c1 [Example 4, {2-[6-(2-Ethyl-5-fluoro-4-hydroxy-phenyl)-1H-indazol-3-yl]-1,4,6,7-tetrahydro-imidazo[4,5-c]pyridin-5-yl}-(5-piperidin-1-yl-pyrazin-2-yl)-methanone]
JAK3 enzyme
  pIC50: 9.30
JAK1/3
  pIC50: 6.85
JAK2
  pIC50: 6.75
[1]
  pIC50: 7.15
[2]
  pIC50: 7.35
[3]
  DoA (time taken for the inhibition to reverse by 50%, T50%): > 8.8 h
